{"source": "patent US20230407298A1", "about": "“METHODS FOR INHIBITING CHMP7 EXPRESSION IN NEURONAL CELLS FOR THE TREATMENT OF NEURODEGENERATIVE DISORDERS” (THE JOHNS HOPKINS UNIVERSITY, priority 2020, published 2023)", "key": {"[1]": {"test_system": "iPSNs", "assay": "Glutamate toxicity, propidium iodide (PI) incorporation", "assay_type": "cell-based, human", "method": "On day 12 of differentiation, iPSNs were plated in 24 well optical bottom plates (Cellvis) at a density of 250,000 neurons per well. Neurons were rinsed with 1×PBS and fed with fresh stage 3 media daily remove dead cells and debris until day 25 of differentiation. On day 25 of differentiation, ASO treatment was initiated as described above. Every 3 days, iPSNs were rinsed 3× with 1×PBS and media and ASO were replaced. On day 40 of differentiation, iPSNs were washed with 1×PBS to remove any remaining debris and dead cells. Media was replaced with ACSF (Tocris) containing 0 or 10 μM glutamate (Sigma Aldrich). iPSNs were incubated at 37° C. with 5% CO2 for 4 hours. After 3.5 hours, one drop of NucBlue Live ReadyProbes (Thermo Fisher Scientific) and […] (Thermo Fisher Scientific) and returned to the incubator for 30 mins. iPSNs were imaged in an environmentally controlled chamber with a Zeiss LSM 800 confocal microscope. […] PI and DAPI spots were counted using FIJI.\nOn day 12 of differentiation, iPSNs were plated in 24 well optical bottom plates (Cellvis) at a density of 250,000 neurons per well. […] After 3.5 hours, one drop of NucBlue Live ReadyProbes (Thermo Fisher Scientific) and 1 μM propidium iodide (Thermo Fisher Scientific) and returned to the incubator for 30 minutes. iPSNs were imaged in an environmentally controlled chamber with a Zeiss LSM 800 confocal microscope. […]"}, "[2]": {"test_system": "TDP-43", "assay": "Immunostaining and confocal imaging for TDP-43 in iPSNs", "assay_type": "cell-based, human", "details": "sALS iPSNs; day 46; 3-week treatment", "method": "(§1) Non-targeting scrambled control (676630): […] (SEQ ID NO:2), CHMP7 ASO 1 (1508916): […] (SEQ ID NO:3), CHMP7 ASO 2 (1508917): […] (SEQ ID NO:4), and CHMP7 ASO 3 (1508918): […] (SEQ ID NO:14) were generously provided by Ionis Pharmaceuticals. On day 25 of differentiation, ASOs were added to the culture media at concentrations of […] as indicated in Description of the Figures. Media was exchanged and ASO replaced every 3 days until iPSNs were subjected to downstream analyses on day 40 of differentiation for western blot, SIM, and glutamate excitotoxicity and day 46 of differentiation for stathmin-2 qRT-PCR, Ran GTPase localization, and TDP-43 localization.\nOn day 12 of differentiation, iPSNs were plated in 24 well optical bottom plates (Cellvis). […] Nuclear intensity and N/C ratios were calculated with FIJI as previously described (80). […]"}, "[3]": {"test_system": "POM121, Nup133, Nup50, FG Nups", "assay": "SIM imaging of nucleoporins in nuclei isolated from CHMP7 ASO treated iPSNs", "assay_type": "cell-based, human", "details": "5 μM, 2-week exposure", "method": "C9orf72 repeat ASO: Sense strand targeting G4C2 ASO (619251) (13) was generously provided by Ionis Pharmaceuticals. On day 20 of differentiation, 5 μM sense targeting ASO was added to the culture media. Media was exchanged and ASO replaced on day 22 of differentiation and downstream analyses were performed on day 25 of differentiation. CHMP7 ASO: Non-targeting scrambled control (676630): […] (SEQ ID NO: 2), CHMP7 ASO 1 (1508916): […] (SEQ ID NO: 3), CHMP7 ASO 2 (1508917): […] (SEQ ID NO: 4), and CHMP7 ASO 3 (1508918): […] (SEQ ID NO:14) were generously provided by Ionis Pharmaceuticals. On day 25 of differentiation, ASOs were added to the culture media at concentrations of 1, 5, or 10 μM as indicated in Description of the Figures. Media was exchanged and ASO replaced every 3 days until day 40 of differentiation.\nNuclei were isolated from iPSNs and postmortem human brain and spinal cord tissue using the Nuclei Pure Prep Nuclei Isolation Kit (Sigma Aldrich) following manufacturer protocol as previously described (13). Briefly, iPSN lysates were prepared by rinsing iPSNs with 1×PBS, adding […] supplied lysis buffer supplemented with DTT and Triton X-100 directly to each well, and harvesting iPSNs with a cell scraper. Postmortem brain and spinal cord lysates were prepared by homogenizing 150 mg fresh frozen tissue directly in supplied lysis buffer with a dounce homogenizer. All lysates were transferred to a 50 mL conical tube and vortexed. Sucrose gradients were assembled following manufacturer protocol. A 1.85 M sucrose gradient was used to enrich for neuronal nuclei. Samples were centrifuged at 15,600 rpm and 4° C. using a Swi32T swinging bucket rotor and Beckman ultracentrifuge (Beckman Coulter) for 45 minutes. The supernatant was discarded, and the remaining nuclei pellet was resuspended in 1 mL of supplied nuclei storage buffer to wash the nuclei of any remaining sucrose. Resuspended nuclei were centrifuged at 2500 rpm and 4° C. for 5 minutes. The supernatant was once again discarded, and the resulting nuclei pellet was vortexed in 1 mL of supplied nuclei storage buffer to resuspend for downstream imaging analysis. For western blots, washed nuclei were lysed in RIPA buffer as described below.\nNuclei staining and super resolution imaging was performed as previously described (6). Following nuclei isolation, 10-50 μL of final nuclei/storage buffer suspension was centrifuged onto collagen coated (1 mg/mL; Advanced Biomatrix) slides with a CytoSpin 4 centrifuge (Thermo Fisher Scientific). Nuclei were immediately fixed with 4% PFA for 5 minutes, washed with 1×PBS 3×10 minutes and permeabilized with 1×PBST containing 0.1% Triton X-100 for 15 minutes. Nuclei were then blocked with 10% normal goat serum diluted in 1×PBS for 1 hour at room temperature and incubated in primary antibody diluted in block (10% normal goat serum in 1×PBS) overnight at 4° C. (See Table B for antibody information). After 16-18 hours, nuclei were washed with 1×PBS 3×10 minutes, incubated in secondary antibody diluted in block (10% normal goat serum in 1×PBS) for 1 hour at room temperature (See Table B for antibody information). Nuclei were washed with 1×PBS 3×10 minutes and cover slipped using Prolong Gold Antifade Reagent (Invitrogen) and 18 mm×18 mm 1.5 high tolerance coverslips (MatTek). NeuN or GFP positive nuclei (see Description of the Figures) were identified via microscope eye pieces. A single z section ˜110 nm thick was acquired by widefield imaging to confirm NeuN or GFP positivity. The immunostained Nup or ESCRT-III protein was subsequently imaged by super resolution structured illumination microscopy (SIM) using a Zeiss ELYRA 51. For each image, 5 grid rotations and optimal z sectioning parameters were employed. Following image acquisition, SIM images were reconstructed using default SIM processing parameters with Zeiss Zen Black 2.3 SP1 software. […]"}, "[4]": {"test_system": "stathmin-2 mRNA", "assay": "qRT-PCR for full length and truncated stathmin-2 mRNA", "assay_type": "cell-based, human", "details": "C9orf72 and sALS iPSNs; day 46; 3 week exposure; GAPDH normalization", "method": "as §1\nRNA from iPSNs was isolated with a RNeasy kit (QIAGEN) according to manufacturer protocol. RNA concentrations were determined with a NanoDrop 1000 spectrophotometer (Thermo Fisher Scientific). For CHMP7 ASO experiments, RNA was isolated on day 46 of differentiation following 3 weeks exposure to 5 μM CHMP7 ASO2 or scrambled control ASO. For CHMP7 overexpression experiments, RNA was isolated on day 32 of differentiation (2 weeks after plasmid nucleofection). […]"}, "[5]": {"molecular_target": "T1, XPO1 (Homo sapiens, UniProt O14980)", "assay": "Nuclear/cytoplasmic fractionation and qRT-PCR of C9orf72 iPSNs following Leptomycin B treatment", "assay_type": "cell-based", "protocol": "Ethanol was used as vehicle control. iPSNs were rinsed in 1×PBS and nuclear/cytoplasmic fractionation was performed with the NE-PER Nuclear and Cytoplasmic Extraction Kit (Thermo Fisher Scientific) according to manufacturer protocol. Following the addition of C2 buffer, 25 μL of sample was added to 25 μL 2× Laemmli buffer (BioRad) and set aside as protein input. An additional 25 μL was set aside on ice as RNA input. From each nuclear and cytoplasmic fraction obtained, 25 μL sample was added to 25 μL 2× Laemmli buffer for protein analysis. An additional 25 μL was added to 500 μL RLT buffer (QIAGEN) for RNA analysis. The remainder of each fraction was stored at −80° C. At the completion of the fractionation, 500 μL RLT buffer was added to the RNA input sample. RNA isolation, cDNA synthesis, and qRT-PCR were performed as described below. […] RNA from immunoprecipitated complexes or nuclear and cytoplasmic cellular fractions was isolated with a RNeasy kit (QIAGEN) according to manufacturer protocol. RNA concentrations were determined with a NanoDrop 1000 spectrophotometer (Thermo Fisher Scientific). […]"}, "[6]": {"molecular_target": "T1, XPO1", "details": "non-neuronal cell lines (ref 24); cited from earlier work"}, "[7]": {"molecular_target": "T1, XPO1", "assay": "SIM of nuclei isolated from wildtype iPSNs following Leptomycin B treatment", "assay_type": "cell-based", "details": "10 nM, ~18 hours", "protocol": "Leptomycin B and ASO Treatment of iPSC Derived Neurons Leptomycin B: On day 18 of differentiation, 10 nM Leptomycin B (LMB, Cayman Chemicals) was added to the culture media and iPSNs were returned to the incubator for ˜18 hours before downstream analyses were conducted. Ethanol was used as vehicle control. Nuclei were isolated from iPSNs and postmortem human brain and spinal cord tissue using the Nuclei Pure Prep Nuclei Isolation Kit (Sigma Aldrich) following manufacturer protocol as previously described (13). Briefly, iPSN lysates were prepared by rinsing iPSNs with 1×PBS, adding mL supplied lysis buffer supplemented with DTT and Triton X-100 directly to each well, and harvesting iPSNs with a cell scraper. […] All lysates were transferred to a 50 mL conical tube and vortexed. Sucrose gradients were assembled following manufacturer protocol. A 1.85 M sucrose gradient was used to enrich for neuronal nuclei. Samples were centrifuged at 15,600 rpm and 4° C. using a Swi32T swinging bucket rotor and Beckman ultracentrifuge (Beckman Coulter) for 45 minutes. The supernatant was discarded, and the remaining nuclei pellet was resuspended in 1 mL of supplied nuclei storage buffer to wash the nuclei of any remaining sucrose. Resuspended nuclei were centrifuged at 2500 rpm and 4° C. for 5 minutes. The supernatant was once again discarded, and the resulting nuclei pellet was vortexed in 1 mL of supplied nuclei storage buffer to resuspend for downstream imaging analysis. […] Nuclei staining and super resolution imaging was performed as previously described (6). Following nuclei isolation, 10-50 μL of final nuclei/storage buffer suspension was centrifuged onto collagen coated (1 mg/mL; Advanced Biomatrix) slides with a CytoSpin 4 centrifuge (Thermo Fisher Scientific). Nuclei were immediately fixed with 4% PFA for 5 minutes, washed with 1×PBS 3×10 minutes and permeabilized with 1×PBST containing 0.1% Triton X-100 for 15 minutes. Nuclei were then blocked with 10% normal goat serum diluted in 1×PBS for 1 hour at room temperature and incubated in primary antibody diluted in block (10% normal goat serum in 1×PBS) overnight at 4° C. […] After 16-18 hours, nuclei were washed with 1×PBS 3×10 minutes, incubated in secondary antibody diluted in block (10% normal goat serum in 1×PBS) for 1 hour at room temperature (See Table B for antibody information). Nuclei were washed with 1×PBS 3×10 minutes and cover slipped using Prolong Gold Antifade Reagent (Invitrogen) and 18 mm×18 mm 1.5 high tolerance coverslips (MatTek). NeuN or GFP positive nuclei (see Description of the Figures) were identified via microscope eye pieces. A single z section ˜110 nm thick was acquired by widefield imaging to confirm NeuN or GFP positivity. The immunostained Nup or ESCRT-III protein was subsequently imaged by super resolution structured illumination microscopy (SIM) using a Zeiss ELYRA 51. For each image, 5 grid rotations and optimal z sectioning parameters were employed. Following image acquisition, SIM images were reconstructed using default SIM processing parameters with Zeiss Zen Black 2.3 SP1 software. Automated nucleoporin spot and volume analysis was conducted as previously described (6, 26) using Imaris version 9.2.0 (Bitplane) and the 3D suite plugin in FIJI version 1.52p. Nucleoporin spots were counted using automated spot detection. […] The total number of nucleoporin spots was determined using a 3D-rendering of segmented SIM images comprising the entire depth of each nucleus."}, "[8]": {"molecular_target": "T1, XPO1", "assay": "Nuclear/cytoplasmic fractionation and western blot of iPSNs following Leptomycin B treatment", "assay_type": "cell-based", "details": "iPSNs (FIGS. 12A-12C)", "protocol": "Leptomycin B and ASO Treatment of iPSC Derived Neurons Leptomycin B: On day 18 of differentiation, 10 nM Leptomycin B (LMB, Cayman Chemicals) was added to the culture media and iPSNs were returned to the incubator for ˜18 hours before downstream analyses were conducted. Ethanol was used as vehicle control. iPSNs were rinsed in 1×PBS and nuclear/cytoplasmic fractionation was performed with the NE-PER Nuclear and Cytoplasmic Extraction Kit (Thermo Fisher Scientific) according to manufacturer protocol. Following the addition of C2 buffer, 25 μL of sample was added to 25 μL 2× Laemmli buffer (BioRad) and set aside as protein input. An additional 25 μL was set aside on ice as RNA input. From each nuclear and cytoplasmic fraction obtained, 25 μL sample was added to 25 μL 2× Laemmli buffer for protein analysis. An additional 25 μL was added to 500 μL RLT buffer (QIAGEN) for RNA analysis. The remainder of each fraction was stored at −80° C. At the completion of the fractionation, 500 μL RLT buffer was added to the RNA input sample. RNA isolation, cDNA synthesis, and qRT-PCR were performed as described below. Western blot analysis was conducted as described below. Equal volume of each sample (10 μL) was loaded in acrylamide gels. […] The supernatant was transferred to a new Eppendorf tube and protein concentrations were determined using the BCA protein estimation assay kit (Thermo Fisher Scientific). […]"}, "[9]": {"details": "C9orf72 and sALS iPSNs, day 40, compared to scrambled control ASO"}, "[10]": {"details": "C9orf72 iPSNs, compared to scrambled control ASO"}}, "note": "Read-outs that look alike come from different tables or passages of the source.", "data": [{"compound": "TGTTACCCTCAGATACCGCC (listed as DNA, chemistry not given here) [CHMP7 ASO 2, CHMP7 targeting ASO provided by Ionis Pharmaceuticals; targets human CHMP7 pre-mRNA, RNase H based degradation]", "values": [{"measurement": "sensitivity to glutamate induced excitotoxicity as measured by propidium iodide (PI) incorporation", "setting": "[1]; C9orf72 and sALS iPSNs, two week treatment (FIG. 20I)", "value": "significantly decreased"}, {"measurement": "sensitivity to glutamate induced excitotoxicity as measured by propidium iodide (PI) incorporation", "setting": "[1]; C9orf72 iPSNs, 2-week exposure to 5 μM ASO, 10 μM glutamate 4 hours (FIG. 4H)", "value": "mitigates"}, {"measurement": "nuclear TDP-43 localization", "setting": "[2]", "value": "restored"}, {"measurement": "Nup50 expression in iPSN nuclei and NPCs", "setting": "[3]; [9]", "value": "significantly restored"}, {"measurement": "Nup133 expression in iPSN nuclei and NPCs", "setting": "[3]; [9]", "value": "significantly restored"}, {"measurement": "POM121 expression in iPSN nuclei and NPCs", "setting": "[3]; [9]", "value": "significantly restored"}, {"measurement": "Nup50 expression in iPSN nuclei and NPCs", "setting": "[3]; [10]", "value": "significantly restored"}, {"measurement": "Nup133 expression in iPSN nuclei and NPCs", "setting": "[3]; [10]", "value": "significantly restored"}, {"measurement": "POM121 expression in iPSN nuclei and NPCs", "setting": "[3]; [10]", "value": "significantly restored"}, {"measurement": "full length stathmin-2 mRNA levels", "setting": "[4]", "value": "restored to levels observed in control iPSNs"}, {"measurement": "truncated stathmin-2 mRNA levels", "setting": "[4]", "value": "restored to levels observed in control iPSNs"}]}, {"compound": "CCC(=C/[C@H](C)C/C=C/C(C)=C/[C@@H](C)C(=O)[C@@H](C)[C@H](O)[C@@H](C)C/C(C)=C/C(=O)O)/C=C/[C@@H]1OC(=O)C=C[C@@H]1C", "note": "[LMB, Leptomycin B]", "values": [{"measurement": "presence of G4C2 repeat RNA in the nuclear fraction", "setting": "[5]; C9orf72 iPSNs (FIG. 12D)", "value": "strongly increases"}, {"measurement": "presence of G2C4 repeat RNA in the nuclear fraction", "setting": "[5]; C9orf72 iPSNs (FIG. 12E)", "value": "strongly increases"}, {"measurement": "nuclear levels of DDX3X", "setting": "[6]", "value": "increases"}, {"measurement": "nuclear levels of RanBP1", "setting": "[6]", "value": "increases"}, {"measurement": "CHMP7 in the nucleus", "setting": "[7]", "value": "significant increase"}, {"measurement": "Nup50 immunoreactivity in nuclei", "setting": "[7]", "value": "reduction"}, {"measurement": "Nup133 immunoreactivity in nuclei", "setting": "[7]", "value": "reduction"}, {"measurement": "POM121 immunoreactivity in nuclei", "setting": "[7]", "value": "reduction"}, {"measurement": "VPS4 immunoreactivity in nuclei", "setting": "[7]", "value": "increase"}, {"measurement": "nuclear levels of DDX3X", "setting": "[8]", "value": "increases"}, {"measurement": "nuclear levels of RanBP1", "setting": "[8]", "value": "increases"}]}]}
